{
  "source": "patent US4795639A",
  "about": "“Potentiating formulations” (priority 1971, dated 1989)",
  "key": {"[1]": {"test_system": "E. tenella", "experiment": "coccidiosis screening test in chicks, E. tenella", "format": "in vivo, Eimeria tenella", "details": "Expt. 4; 100,000 oocysts; p.p.m SQX/DV/DMHP: b374 10/-/-; b375 -/20/-; b376 -/-/10; b377 10/-/10; b378 -/20/10; b379 10/20/-; b381 10/20/10; b382 20/-/-; b383 -/40/-; b384 -/-/20; b385 20/-/20; b386 -/40/20; b387 20/40/-; b389 20/40/20", "method": "\"Screening tests\" were performed to establish the effectiveness of the compounds of formula (I) both alone and in combination with a competitor and or an inhibitor and to determine the most useful levels of relative concentrations of each component in combatting or suppressing coccidiosis.\nGroups of Ranger cockerels, housed in small, heated cages with wire floors situated in enironmentally controlled isolation rooms, were infected orally with sporulated oocysts of the Eimeria spp such as E. tenella or E. acervulina. The appropriate test compound(s), (DMHP, sulphaquinoxaline (SQX) or diaveridine (DV) or any combination of these) were incorporated in a small quantity of specially formulated laboratory ration deficient in Vitamin K (`L.D.4 mash`), as a 1/10 pre-mix, which was then mixed into the diet on a horizontal roller drum mixed and administered to groups of chicks one day prior to infection, leaving some groups as untreated controls. Administration was continued for several days, for example about 8 or 9 days.\nThe amount of damage, marked by lesions in the caecal walls was investigated in those chicks that died during the course of the experiment, and in those sacrificed on the final day of administration, and compared with the untreated controls as a basis for the determination of therapeutic activity. In addition the mortality rate and the percentage weight gains in the various groups were assessed. A marked or definite effect of the administered drug could be recognised even when the mortality rates were similar or identical, since the increase in the weight gains and the reduction of the extension of lesions indicated by the lesion score, is characteristic of an improvement. […]\n4:1 sulphaquinoxaline/diaveridine mixtures at levels of 80/20, 60/15, 40/10 and 20/5 p.p.m. were administered alone and in combination with a wide range of low concentrations of DMHP to the birds.\nThe results of these screening tests are set forth in Table 4 showing the concentration of the various component compounds in parts per million of the bird's diet, the mortality from coccidiosis, the percentage weight gain, the lesion score the oocyst output, and the activity. The caecal lesion index is calculated using a score system where: […]\nIn addition a score of 4 is assigned to any bird that dies of coccidiosis during the experiment. [formula] In the activity column, +++, ++, +, ± and - relate respectively to very high, high, slight, doubtful and nil activity of the test drug against the Eimeria infection."}, "[2]": {"test_system": "Pasteurella multocida", "experiment": "Pasteurella multocida infection in chicks", "format": "in vivo", "details": "for Cumulative Mortality on day 1: groups of 10 chicks, 15:85 TMP SQX p.p.m / DMHP p.p.m: b654 25/20, b655 25/10, b656 25/5, b657 12.5/20, b658 12.5/10, b659 12.5/5, b660 50/-, b661 25/-, b662 12.5/-, b665 TMP 15, b666 TMP 30, b667 SQX 85, b669 SQX 42.5"}, "[3]": {"test_system": "Staphylococcus aureus", "experiment": "M.I.C. in Wellcome Nutrient Agar, 18 hours at 37° C.", "format": "cell-based", "details": "DMHP Nil"}, "[4]": {"test_system": "Staphylococcus aureus N 491", "experiment": "growth rate inhibition, turbidometric, Wellcome Nutrient Broth", "format": "cell-based"}, "[5]": {"test_system": "Staphylococcus aureus CN 491", "experiment": "testing discs on standard nutrient medium", "format": "cell-based", "details": "per 6 mm filterpaper disc: TMP 1.25 μg, SMX 23.75 μg, DMHP 100 μg, as in label"}, "[6]": {"test_system": "Streptococcus faecalis CN 478", "experiment": "testing discs on standard nutrient medium", "format": "cell-based", "details": "per 6 mm filterpaper disc: TMP 1.25 μg, SMX 23.75 μg, DMHP 100 μg, as in label"}, "[7]": {"test_system": "Escherichia coli CN 314", "experiment": "testing discs on standard nutrient medium", "format": "cell-based", "details": "per 6 mm filterpaper disc: TMP 1.25 μg, SMX 23.75 μg, DMHP 100 μg, as in label"}, "[8]": {"test_system": "Proteus vulgaris CN 329", "experiment": "testing discs on standard nutrient medium", "format": "cell-based", "details": "per 6 mm filterpaper disc: TMP 1.25 μg, SMX 23.75 μg, DMHP 100 μg, as in label"}, "[9]": {"test_system": "Pseudomonas aeruginosa CN 200", "experiment": "testing discs on standard nutrient medium", "format": "cell-based", "details": "per 6 mm filterpaper disc: TMP 1.25 μg, SMX 23.75 μg, DMHP 100 μg, as in label"}, "[10]": {"test_system": "Staphylococcus aureus", "experiment": "microbe, parasite or virus in culture", "details": "for Percentage of inoculum viable at 24 hrs.: DMHP Nil, Test 2", "method": "The results are shown in Table 9 in which the bactericidal activity is expressed as the percentage of the original inoculum, measured by viable counts, which was alive after 24-hours' incubation at 37° C. The inoculum used gave a final concentration of 10^6 organisms per ml."}, "[11]": {"details": "Staphylococcus aureus, N491, 7 h, read-out: Percentage of inhibition at 7 hrs."}, "[12]": {"details": "Table 6, doses as in E56, listed as TMP"}, "[13]": {"details": "Staphylococcus aureus, 24 h, read-out: Percentage of inoculum viable at 24 hrs."}},
  "note": "“And” between values parts separate entries of the source, which are not always exact repeats. Identical values can stand only once.",
  "data": [
    {"smiles": "Nc1ccc(S(=O)(=O)Nc2cnc3ccccc3n2)cc1", "note": "[SQX, sulphaquinoxaline]", "values": [
      {"measurement": "Mortality from Coccidiosis", "setting": "[1]", "result": "8/10 and 9/10"},
      {"measurement": "activity alone against Pasteurella multocida", "setting": "[2]; Example 3 Experiment 1", "result": "good activity alone"},
      {"measurement": "Average Weight of surviving chicks", "setting": "[2]; Table 5, doses as in E44", "result": "259.5 gm and 234.0 gm"},
      {"measurement": "Cumulative Mortality on day 5", "setting": "[2]; Table 5, doses as in E44", "result": 1},
      {"measurement": "Cumulative Mortality on day 6", "setting": "[2]; Table 5, doses as in E44", "result": 1},
      {"measurement": "Cumulative Mortality on day 7", "setting": "[2]; Table 5, doses as in E44", "result": 1},
      {"measurement": "Cumulative Mortality on day 8", "setting": "[2]; Table 5, doses as in E44", "result": 1},
      {"measurement": "Cumulative Mortality on day 9", "setting": "[2]; Table 5, doses as in E44", "result": 1},
      {"measurement": "Cumulative Mortality on day 10", "setting": "[2]; Table 5, doses as in E44", "result": 1},
      {"measurement": "Weight gain (% of control)", "setting": "[2]; Table 5, percentage of uninfected controls, doses as in E44", "result": "84 % of control and 69 % of control"},
      {"measurement": "Cumulative Mortality on day 6", "setting": "[2]; Table 6, doses as in E56", "result": 1},
      {"measurement": "Cumulative Mortality on day 7", "setting": "[2]; Table 6, doses as in E56", "result": 1},
      {"measurement": "Cumulative Mortality on day 8", "setting": "[2]; Table 6, doses as in E56", "result": 1},
      {"measurement": "Cumulative Mortality on day 9", "setting": "[2]; Table 6, doses as in E56", "result": 1},
      {"measurement": "Cumulative Mortality on day 10", "setting": "[2]; Table 6, doses as in E56", "result": 1},
      {"measurement": "Cumulative Mortality on day 11", "setting": "[2]; Table 6, doses as in E56", "result": 1},
      {"measurement": "Cumulative Mortality on day 1", "setting": "[2]; Table 6", "result": 0}
    ]},
    {"smiles": "Cc1cc(NS(=O)(=O)c2ccc(N)cc2)no1", "note": "[Sulphamethoxazole, sulphamethoxazole]", "values": [
      {"measurement": "Sulphamethoxazole M.I.C.", "setting": "[3]", "result": 1.0, "unit": "µg/mL"},
      {"measurement": "inhibition at 0.1 µg/mL", "setting": "[4]; [11]", "result": 16, "unit": "%"},
      {"measurement": "Size of zone in cm (×6 magnification)", "setting": "[5]", "result": 26, "unit": "cm"},
      {"measurement": "Size of zone in cm (×6 magnification)", "setting": "[6]", "result": 0, "unit": "cm"},
      {"measurement": "Size of zone in cm (×6 magnification)", "setting": "[7]", "result": 28, "unit": "cm"},
      {"measurement": "Size of zone in cm (×6 magnification)", "setting": "[8]", "result": 36, "unit": "cm"},
      {"measurement": "Size of zone in cm (×6 magnification)", "setting": "[9]", "result": 32, "unit": "cm"}
    ]},
    {"smiles": "COc1cc(Cc2cnc(N)nc2N)cc(OC)c1OC", "note": "[Trimethoprim, 2,4-diamino-5-(3'4',5'-trimethoxybenzyl)pyrimidine]", "values": [
      {"measurement": "Cumulative Mortality on day 4", "setting": "[2]; Table 6, doses as in E56", "result": 8},
      {"measurement": "Cumulative Mortality on day 6", "setting": "[2]; Table 6, doses as in E56", "result": 10},
      {"measurement": "Cumulative Mortality on day 2", "setting": "[2]; [12]", "result": "4 and 2"},
      {"measurement": "Cumulative Mortality on day 3", "setting": "[2]; [12]", "result": "4 and 5"},
      {"measurement": "Cumulative Mortality on day 5", "setting": "[2]; [12]", "result": "10 and 8"},
      {"measurement": "Cumulative Mortality on day 1", "setting": "[2]; Table 6", "result": 0},
      {"measurement": "Percentage of inhibition at 7 hrs.", "setting": "[4]", "result": "6 and 12"},
      {"measurement": "inhibition at 0.002 µg/mL", "setting": "[4]; [11]", "result": 10, "unit": "%"},
      {"measurement": "inhibition at 0.004 µg/mL", "setting": "[4]; [11]", "result": 8, "unit": "%"},
      {"measurement": "viability at 0.3 µg/mL", "setting": "[10]; [13]", "result": "> 100", "unit": "%"},
      {"measurement": "viability at 1 µg/mL", "setting": "[10]; [13]", "result": "> 100", "unit": "%"},
      {"measurement": "Percentage of inoculum viable at 24 hrs.", "setting": "[10]; Trimethoprim 0.3 μg./ml", "result": "> 100", "unit": "%"},
      {"measurement": "Percentage of inoculum viable at 24 hrs.", "setting": "[10]; Trimethoprim 1.0 μg./ml", "result": "> 100", "unit": "%"},
      {"measurement": "Size of zone in cm (×6 magnification)", "setting": "[5]", "result": 21, "unit": "cm"},
      {"measurement": "Size of zone in cm (×6 magnification)", "setting": "[6]", "result": 28, "unit": "cm"},
      {"measurement": "Size of zone in cm (×6 magnification)", "setting": "[7]", "result": 34, "unit": "cm"},
      {"measurement": "Size of zone in cm (×6 magnification)", "setting": "[8]", "result": 19, "unit": "cm"},
      {"measurement": "Size of zone in cm (×6 magnification)", "setting": "[9]", "result": 0, "unit": "cm"}
    ]}
  ]
}
